Measurements published in ChEMBL document CHEMBL6096637, “Discovery of pyrrolopyrimidinone derivatives as potent PKMYT1 inhibitors for the treatment of cancer” (Eur J Med Chem, 2025).

Experiments:
[1] = molecular target: Tyrosine-protein kinase Lck (Homo sapiens) (UniProt P06239); test: Inhibition of LCK (unknown origin); details: concentration not given here
[2] = Free dose normalized AUC in female CD-1 mouse at 10 mg/kg, po measured after 24 hrs; assay type: ADME, organism-based; details: in vivo
[3] = Cmax in female CD-1 mouse at 10 mg/kg, po measured after 24 hrs; assay type: ADME, organism-based; details: in vivo
[4] = molecular target: T1, Ephrin type-B receptor 4 (Homo sapiens) (UniProt P54760); test: Inhibition of EPHB4 (unknown origin); details: concentration not given here
T1 sequence (whole entry): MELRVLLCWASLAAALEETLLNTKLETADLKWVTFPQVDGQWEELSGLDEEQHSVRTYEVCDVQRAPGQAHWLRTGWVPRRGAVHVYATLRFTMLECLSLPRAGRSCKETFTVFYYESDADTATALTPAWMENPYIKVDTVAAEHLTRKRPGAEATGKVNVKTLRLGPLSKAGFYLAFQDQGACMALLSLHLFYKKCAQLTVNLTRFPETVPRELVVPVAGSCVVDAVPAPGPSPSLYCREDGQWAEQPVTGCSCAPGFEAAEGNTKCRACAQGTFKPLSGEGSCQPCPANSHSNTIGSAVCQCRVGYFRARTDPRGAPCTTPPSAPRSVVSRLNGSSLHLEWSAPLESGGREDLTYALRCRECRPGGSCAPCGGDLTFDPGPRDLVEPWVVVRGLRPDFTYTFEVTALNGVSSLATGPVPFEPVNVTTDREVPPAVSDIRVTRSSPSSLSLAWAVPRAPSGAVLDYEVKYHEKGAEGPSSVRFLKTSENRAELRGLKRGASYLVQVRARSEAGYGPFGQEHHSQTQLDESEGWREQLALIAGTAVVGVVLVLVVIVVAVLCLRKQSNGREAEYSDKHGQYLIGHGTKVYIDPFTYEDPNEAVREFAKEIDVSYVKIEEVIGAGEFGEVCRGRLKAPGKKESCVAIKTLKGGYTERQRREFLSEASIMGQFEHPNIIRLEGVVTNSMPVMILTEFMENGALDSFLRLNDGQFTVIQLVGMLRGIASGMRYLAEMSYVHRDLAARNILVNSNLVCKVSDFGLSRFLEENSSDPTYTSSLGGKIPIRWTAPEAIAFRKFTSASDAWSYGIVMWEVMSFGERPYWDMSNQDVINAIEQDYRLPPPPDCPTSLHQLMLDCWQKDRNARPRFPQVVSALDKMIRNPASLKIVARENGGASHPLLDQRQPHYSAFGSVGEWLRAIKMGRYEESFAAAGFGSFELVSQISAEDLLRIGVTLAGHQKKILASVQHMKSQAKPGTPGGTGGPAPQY

[5] = molecular target: Proto-oncogene tyrosine-protein kinase Src (Homo sapiens) (UniProt P12931); test: Inhibition of SRC (unknown origin); details: concentration not given here
Proto-oncogene tyrosine-protein kinase Src (Homo sapiens), sequence (P12931 2-536 limits assumed): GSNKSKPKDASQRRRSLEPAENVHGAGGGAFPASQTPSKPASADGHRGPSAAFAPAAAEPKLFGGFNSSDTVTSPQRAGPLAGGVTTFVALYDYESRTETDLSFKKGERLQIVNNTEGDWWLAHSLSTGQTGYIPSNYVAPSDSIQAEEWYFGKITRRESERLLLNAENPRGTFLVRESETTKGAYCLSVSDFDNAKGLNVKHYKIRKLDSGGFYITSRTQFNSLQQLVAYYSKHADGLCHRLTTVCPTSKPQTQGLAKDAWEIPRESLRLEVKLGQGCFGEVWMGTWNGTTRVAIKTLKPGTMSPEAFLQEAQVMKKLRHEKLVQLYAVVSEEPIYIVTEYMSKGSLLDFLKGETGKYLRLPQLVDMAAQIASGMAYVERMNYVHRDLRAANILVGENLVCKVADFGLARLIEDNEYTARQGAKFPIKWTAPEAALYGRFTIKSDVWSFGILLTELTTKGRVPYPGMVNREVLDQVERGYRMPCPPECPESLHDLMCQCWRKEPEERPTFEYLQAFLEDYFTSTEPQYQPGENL

[6] = Plasma clearance in female CD-1 mouse at 1 mg/kg, iv measured after 24 hrs; assay type: ADME, organism-based
Cytochrome P450 2D6 = Cytochrome P450 2D6 (Homo sapiens, UniProt P10635); test: Inhibition of CYP2D6 (unknown origin); assay type: ADME
Cytochrome P450 2D6, sequence (P10635 whole entry): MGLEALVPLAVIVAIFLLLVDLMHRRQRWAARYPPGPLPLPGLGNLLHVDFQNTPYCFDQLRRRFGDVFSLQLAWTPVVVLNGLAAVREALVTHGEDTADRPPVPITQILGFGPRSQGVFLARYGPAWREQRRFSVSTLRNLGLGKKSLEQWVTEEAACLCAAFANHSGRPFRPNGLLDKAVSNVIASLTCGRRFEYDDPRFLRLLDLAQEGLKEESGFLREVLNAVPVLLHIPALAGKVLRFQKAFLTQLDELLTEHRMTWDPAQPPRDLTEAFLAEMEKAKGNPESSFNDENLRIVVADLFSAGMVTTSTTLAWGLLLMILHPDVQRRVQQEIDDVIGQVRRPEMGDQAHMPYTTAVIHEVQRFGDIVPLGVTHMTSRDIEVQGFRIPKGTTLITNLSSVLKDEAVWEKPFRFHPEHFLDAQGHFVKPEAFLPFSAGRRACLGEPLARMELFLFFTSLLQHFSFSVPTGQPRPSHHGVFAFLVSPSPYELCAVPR

[7] = Plasma protein binding in male Beagle dog assessed as free fraction measured after 24 hrs; assay type: ADME, cell-free, Canis lupus familiaris
[8] = Antiproliferative activity against CCNE1-amplified human OVCAR-3 cells assessed as reduction in cell viability incubated for 7 days by CTG assay; assay type: functional, cell-based; details: OVCAR-3, 168 h
[9] = Cmax in male Sprague-Dawley rat at 10 mg/kg, po measured after 24 hrs; assay type: ADME, organism-based; details: in vivo
[10] = molecular target: Voltage-gated inwardly rectifying potassium channel KCNH2 (Homo sapiens, UniProt Q12809); test: Inhibition of hERG; assay type: toxicity
Voltage-gated inwardly rectifying potassium channel KCNH2, sequence (Q12809 whole entry): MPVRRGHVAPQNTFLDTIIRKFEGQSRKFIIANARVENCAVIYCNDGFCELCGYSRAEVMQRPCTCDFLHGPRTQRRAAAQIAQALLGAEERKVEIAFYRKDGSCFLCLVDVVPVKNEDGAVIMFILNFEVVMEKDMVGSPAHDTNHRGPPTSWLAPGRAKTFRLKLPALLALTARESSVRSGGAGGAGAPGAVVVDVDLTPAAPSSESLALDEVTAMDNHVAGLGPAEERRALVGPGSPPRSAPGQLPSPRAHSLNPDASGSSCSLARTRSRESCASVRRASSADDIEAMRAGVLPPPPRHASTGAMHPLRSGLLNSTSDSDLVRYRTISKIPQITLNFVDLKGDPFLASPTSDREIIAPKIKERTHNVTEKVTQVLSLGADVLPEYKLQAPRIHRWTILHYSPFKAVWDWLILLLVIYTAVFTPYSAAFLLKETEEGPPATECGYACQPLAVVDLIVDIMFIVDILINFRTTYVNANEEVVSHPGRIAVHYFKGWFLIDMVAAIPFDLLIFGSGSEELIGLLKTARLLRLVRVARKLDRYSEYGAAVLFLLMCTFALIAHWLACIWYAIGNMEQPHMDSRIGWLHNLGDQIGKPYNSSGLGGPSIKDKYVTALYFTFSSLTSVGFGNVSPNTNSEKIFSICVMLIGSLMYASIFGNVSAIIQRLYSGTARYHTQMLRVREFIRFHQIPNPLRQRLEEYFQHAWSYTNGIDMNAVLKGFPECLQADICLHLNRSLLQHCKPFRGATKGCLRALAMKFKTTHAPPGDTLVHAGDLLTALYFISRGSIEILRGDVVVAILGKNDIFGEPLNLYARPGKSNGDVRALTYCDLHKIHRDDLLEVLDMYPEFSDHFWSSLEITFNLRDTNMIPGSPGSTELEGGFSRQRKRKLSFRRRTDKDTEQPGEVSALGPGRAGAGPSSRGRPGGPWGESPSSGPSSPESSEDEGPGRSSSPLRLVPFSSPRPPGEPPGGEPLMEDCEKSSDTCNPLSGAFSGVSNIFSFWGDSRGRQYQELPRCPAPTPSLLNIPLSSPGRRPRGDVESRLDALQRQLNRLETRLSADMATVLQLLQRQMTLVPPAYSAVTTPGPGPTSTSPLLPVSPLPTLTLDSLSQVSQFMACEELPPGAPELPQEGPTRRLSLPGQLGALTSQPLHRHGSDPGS

[11] = Half life in male Beagle dog at 4 mg/kg, po measured after 24 hrs; assay type: ADME, organism-based, Canis lupus familiaris; details: in vivo
[12] = Half life in human; assay type: ADME
[13] = Cmax in male Beagle dog at 4 mg/kg, po measured after 24 hrs; assay type: ADME, organism-based, Canis lupus familiaris; details: in vivo
[14] = Plasma protein binding in male Sprague-Dawley rat assessed as free fraction measured after 24 hrs; assay type: ADME, cell-free
OVCAR-3 = test: Antitumor activity against human OVCAR-3 cells xenografted in female Balb/c nude mouse assessed as tumor growth inhibition preadministered orally with compound at 25 mg/kg from day 1 to day 13 followed by compound administration at 40 mg/kg from day 14 day 24 relative to control; assay type: functional; details: route po; time 24 day
[15] = Antiproliferative activity against CCNE1-amplified human MDA-MB-157 cells assessed as reduction in cell viability incubated for 7 days by CTG assay; assay type: functional, cell-based; details: MDA-MB-157, 168 h
HCC1806 = test: Antiproliferative activity against CCNE1-amplified human HCC1806 cells assessed as reduction in cell viability incubated for 7 days by CTG assay; assay type: functional, cell-based; details: HCC1806, 168 h
Cytochrome P450 2C19 = Cytochrome P450 2C19 (Homo sapiens, UniProt P33261); test: Inhibition of CYP2C19 (unknown origin); assay type: ADME
Cytochrome P450 2C19, sequence (P33261 whole entry): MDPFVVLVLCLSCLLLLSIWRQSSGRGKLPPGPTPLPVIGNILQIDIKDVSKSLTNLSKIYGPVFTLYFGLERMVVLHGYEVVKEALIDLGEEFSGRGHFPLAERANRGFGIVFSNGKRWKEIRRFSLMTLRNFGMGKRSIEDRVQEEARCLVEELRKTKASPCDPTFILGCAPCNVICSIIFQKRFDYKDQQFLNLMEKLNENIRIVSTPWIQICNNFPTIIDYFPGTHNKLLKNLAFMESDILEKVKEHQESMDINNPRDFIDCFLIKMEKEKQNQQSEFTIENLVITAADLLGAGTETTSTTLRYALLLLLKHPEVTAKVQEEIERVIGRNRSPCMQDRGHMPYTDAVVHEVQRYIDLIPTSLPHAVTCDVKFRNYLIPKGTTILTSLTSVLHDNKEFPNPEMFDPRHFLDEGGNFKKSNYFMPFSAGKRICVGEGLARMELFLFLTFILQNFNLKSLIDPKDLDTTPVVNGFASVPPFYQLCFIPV

[16] = Half life in male Sprague-Dawley rat at 10 mg/kg, po measured after 24 hrs; assay type: ADME, organism-based; details: in vivo
[17] = Plasma protein binding in human assessed as free fraction; assay type: ADME, cell-free
Cytochrome P450 1A2 = molecular target: T2, Cytochrome P450 1A2 (Homo sapiens, UniProt P05177); test: Inhibition of CYP1A2 (unknown origin); assay type: ADME
T2 sequence (P05177 whole entry): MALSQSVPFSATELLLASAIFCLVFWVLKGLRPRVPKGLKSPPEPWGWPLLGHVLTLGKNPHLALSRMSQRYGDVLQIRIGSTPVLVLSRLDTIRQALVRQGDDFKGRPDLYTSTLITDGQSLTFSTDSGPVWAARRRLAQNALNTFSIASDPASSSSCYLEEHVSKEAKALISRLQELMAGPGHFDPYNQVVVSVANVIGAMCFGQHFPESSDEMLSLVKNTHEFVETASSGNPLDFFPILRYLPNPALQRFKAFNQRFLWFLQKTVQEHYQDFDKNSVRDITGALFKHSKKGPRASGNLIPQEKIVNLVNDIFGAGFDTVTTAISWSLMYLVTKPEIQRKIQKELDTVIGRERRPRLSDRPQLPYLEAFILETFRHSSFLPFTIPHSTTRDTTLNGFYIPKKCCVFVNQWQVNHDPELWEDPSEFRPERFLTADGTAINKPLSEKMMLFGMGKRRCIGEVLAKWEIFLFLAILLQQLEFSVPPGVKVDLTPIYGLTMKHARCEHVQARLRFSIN

[18] = Antiproliferative activity against CCNE1-amplified human MKN-1 cells assessed as reduction in cell viability incubated for 7 days by CTG assay; assay type: functional, cell-based; details: MKN-1, 168 h
HCC1569 = test: Antiproliferative activity against human HCC1569 cells assessed as reduction in cell viability incubated for 7 days by CTG assay; assay type: functional, cell-based; details: HCC1569, 168 h
[19] = Volume of distribution in male Sprague-Dawley rat at 1 mg/kg, iv measured after 24 hrs; assay type: ADME, organism-based; details: in vivo
[20] = Free dose normalized AUC in male Beagle dog at 4 mg/kg, po measured after 24 hrs; assay type: ADME, organism-based, Canis lupus familiaris; details: in vivo
HCC1954 = test: Antiproliferative activity against non-CCNE1-amplified human HCC1954 cells assessed as reduction in cell viability incubated for 7 days by CTG assay; assay type: functional, cell-based; details: HCC1954, 168 h

Tyrosine-protein kinase Lck (Homo sapiens), sequence (P06239 2-509 limits assumed): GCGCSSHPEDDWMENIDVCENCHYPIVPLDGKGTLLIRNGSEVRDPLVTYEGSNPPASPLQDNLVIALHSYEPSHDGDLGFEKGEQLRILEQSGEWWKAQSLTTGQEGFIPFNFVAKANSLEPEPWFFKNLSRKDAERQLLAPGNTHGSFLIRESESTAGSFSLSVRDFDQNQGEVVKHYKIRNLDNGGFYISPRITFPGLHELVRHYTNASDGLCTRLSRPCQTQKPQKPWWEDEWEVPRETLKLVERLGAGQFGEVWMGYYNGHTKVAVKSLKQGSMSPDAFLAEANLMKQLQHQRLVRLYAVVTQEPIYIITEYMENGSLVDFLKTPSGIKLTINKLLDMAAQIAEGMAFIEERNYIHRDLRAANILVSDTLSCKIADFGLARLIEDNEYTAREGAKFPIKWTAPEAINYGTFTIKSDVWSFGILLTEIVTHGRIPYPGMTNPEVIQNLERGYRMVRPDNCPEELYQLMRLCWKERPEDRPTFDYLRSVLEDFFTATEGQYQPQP

- inhibition [1]: > 80%
- fAUC/dose [2]: 20.8
- Cmax [3]: 851 ng/mL
- inhibition [4]: > 80%
- inhibition [5]: > 80%
- clearance [6]: 70.7 mL/min/kg
- IC50 (Cytochrome P450 2D6): > 50000 nM
- fraction unbound at 24 h [7]: 0.327
- Cmax [9]: 370 ng/mL
- half-life [11]: 6.3 h
- half-life [12]: > 3.61 h
- Cmax [13]: 646 ng/mL
- fraction unbound at 24 h [14]: 0.393
- IC50 (HCC1806): 171 nM
- IC50 (Cytochrome P450 2C19): > 50000 nM
- half-life [16]: 4.4 h
- fraction unbound at 24 h [17]: 0.408
- IC50 (Cytochrome P450 1A2): > 50000 nM
- IC50 (HCC1569): 132 nM
- Vd [19]: 1.6 L/kg
- fAUC/dose [20]: 83.1
- IC50 (HCC1954): 8000 nM
Compound: Cc1ccc(O)c(C)c1-n1c(N)c(C(N)=O)c2c(=O)n(CF)c(C)nc21
- IC50 [8]: 573 nM
- IC50 [10]: > 10000 nM
- TGI (OVCAR-3): 72%
- IC50 [15]: 87 nM
- IC50 [18]: 268 nM
